Assay [1] deals with P. aeruginosa (strain WC-452). In words: 21-day serial passage resistance assay. In kind it is cell-based, Pseudomonas aeruginosa. The conditions noted are these: over 18 days. Here is the method: […]. An analysis of bacterial resistance was performed using P. aeruginosa (strain WC-452) over 21 days of serial passage in the presence of a GN-lysin dilution series (in duplicate). […] The well with the highest concentration of GN lysin in which bacterial growth was seen was then used as the inoculum for the next day's passage, and the process was repeated over a 21 day period. The MIC at each daily time-point was recorded, and resistance was measured as a step-wise increase in MIC.

Assay [2] concerns carbapenem-resistant P. aeruginosa strains. The format is cell-based, Pseudomonas aeruginosa. As to the method: Such resensitization may be determined by combining the present lysins or lysin-AMP polypeptide constructs with an antibiotic in a checkerboard assay as described herein. Antibiotic-resistant bacteria, such as carbapenem-resistant P. aeruginosa, are added to the lysin or lysin-AMP polypeptide construct combination. […] See Clinical and Laboratory Standards Institute (CLSI), CLSI. […] M100 Performance Standards for Antimicrobial Susceptibility Testing; 29th Edition. Clinical and Laboratory Standards Institute, Wayne, Pa., which is herein incorporated by reference in its entirety.
Up to seven carbapenem-resistant isolates were assessed. […] See Clinical and Laboratory Standards Institute (CLSI), CLSI. […] M100 Performance Standards for Antimicrobial Susceptibility Testing; 29th Edition. Clinical and Laboratory Standards Institute, Wayne, Pa.

Assay [3] relates to P. aeruginosa isolate CFS 1558 (PA20). Put plainly: Rabbit pulmonary model establishment: inoculum and meropenem static dose. The format is in vivo. The conditions noted are these: for Bacterial Burden, Kidneys / Bacterial Burden, Lung 1 / Bacterial Burden, Lung 2 / Bacterial Burden, Spleen: sacrificed 18-24 hours after last dose.
From the text: 3×10^9 CFU of the P. aeruginosa isolate was used to challenge the rabbits during the efficacy study described below.
In assay [4] the test system is Staphylococcus aureus. In words: Daptomycin MIC in […] (positive control). In kind it is cell-based. The conditions noted are these: S. aureus.
Method: As a positive control, the impact of […] ® on daptomycin (DAP) activity against Staphylococcus aureus was also tested.
Setting [5] is: Meropenem 10 mg/kg, three times a day subcutaneous for two days.
[6] abbreviates: Meropenem 20 mg/kg, three times a day subcutaneous for two days.
The mark [7] stands for this setting: Meropenem 30 mg/kg, three times a day subcutaneous for two days.
Setting [8] is: Meropenem 40 mg/kg, three times a day subcutaneous for two days.

Like-named read-outs stand apart in the source and are kept apart here.

As to `O=C(O)c1cn(C2CC2)c2cc(N3CCNCC3)c(F)cc2c1=O` [Ciprofloxacin], in assay [1], the “increase in MIC during serial passage” value is recorded as 16 fold.

As for `C[C@@H](O)[C@H]1C(=O)N2C(C(=O)O)=C(SCCN=CN)C[C@H]12` [Imipenem, imipenem], the “Antibiotic MIC Alone” value in assay [2] (IPM + GN351 vs. WC-452), in assay [2] (IPM + GN370 vs. WC-452) and in assay [2] (IPM + GN428 vs. WC-452) was 16 (R) each time.

Consider `C[C@@H](O)[C@H]1C(=O)N2C(C(=O)O)=C(S[C@@H]3CN[C@H](C(=O)N(C)C)C3)[C@H](C)[C@H]12` [Meropenem, meropenem], for which the “Antibiotic MIC Alone” value in assay [2] (MEM + GN351 vs. WC-452), in assay [2] (MEM + GN370 vs. WC-452) and in assay [2] (MEM + GN428 vs. WC-452) was 16 (R) in each case. The “Bacterial Burden, Kidneys” value was 4.36 ± 0.43 log10 CFU/g in assay [3] (setting [5]); 4.51 ± 0.73 log10 CFU/g in assay [3] (setting [6]); 2.06 ± 0.58 log10 CFU/g in assay [3] (Meropenem 25 mg/kg); 2.24 ± 0.64 log10 CFU/g in assay [3] (setting [7]); 2.34 ± 0.65 log10 CFU/g in assay [3] (setting [8]). Besides, the “Bacterial Burden, Lung 1” value in assay [3] (setting [5]) is on record as 7.39 ± 0.34 log10 CFU/g; in assay [3] (setting [6]), 6.85 ± 1.09 log10 CFU/g; in assay [3] (Meropenem 25 mg/kg) it was 4.55 ± 1.65 log10 CFU/g; in assay [3] (setting [7]) it was 4.83 ± 1.19 log10 CFU/g; in assay [3] (setting [8]), 4.66 ± 0.11 log10 CFU/g. Besides, the “Bacterial Burden, Lung 2” value in assay [3] (setting [5]) is listed as 7.42 ± 0.64 log10 CFU/g; in assay [3] (setting [6]) it was 6.97 ± 1.19 log10 CFU/g; in assay [3] (Meropenem 25 mg/kg), 3.73 ± 1.03 log10 CFU/g; in assay [3] (setting [7]), 4.42 ± 1.14 log10 CFU/g; in assay [3] (setting [8]), 2.95 ± 1.19 log10 CFU/g. The “Bacterial Burden, Spleen” value in assay [3] (setting [5]) was 4.01 ± 0.10 log10 CFU/g; in assay [3] (setting [6]), 4.74 ± 0.57 log10 CFU/g; in assay [3] (Meropenem 25 mg/kg), 2.15 ± 0.78 log10 CFU/g; in assay [3] (setting [7]), 1.97 ± 0.63 log10 CFU/g; in assay [3] (setting [8]), 1.93 ± 0.47 log10 CFU/g. Besides, the “meropenem dosage establishing a static effect” value in assay [3] (three times a day, subcutaneous, two days, rabbits) came out at 20 mg/kg.

As to daptomycin, the “fold increase in MIC” value in assay [4] (0.09% SURVANTA) stood at 32; in assay [4] (0.19% SURVANTA) it was 32; in assay [4] (1.56% SURVANTA) it was 128; in assay [4] (3.15% SURVANTA), 128.

These data come from patent US20220402984A1, “LYSIN-ANTIMICROBIAL PEPTIDE (AMP) POLYPEPTIDE CONSTRUCTS, LYSINS, ISOLATED POLYNUCLEOTIDES ENCODING SAME AND USES THEREOF” (priority 2018, published 2022).
